According to patent US8765688B2, “Anti-dandruff compositions containing peptides” (priority 2007, dated 2014):
Ends that are not written are not given here.

Key:
[1] = system: Malassezia furfur; test: Minimum inhibitory concentration (MIC) of P18 in the presence of shampoo basic formulation 31-3, CFU after 24 hours; assay type: cell-based; details: for CFU after 24 hours of incubation: in presence of shampoo basic formulation 31-3
Procedure: The minimum inhibitory concentration (MIC) of the peptide P18 (H-KWKLFKKIPKFLHLAKKF-NH2; carboxy-terminal end amidated; SEQ ID NO: 3) in the presence of the shampoo basic formulation 31-3 (table 16) was tested as follows: […]
The following shampoo basic formulation was prepared: […]
The shampoo basic formulation was prepared by mixing and dissolving the components Texapon NSO and Tego Betain L7. The pH was adjusted to pH 6-7 with NaOH.
The effect of the peptide against M. furfur was analyzed as follows:
(§1) Growth medium: M472-Pityrosporum medium according to DSMZ
(§2) The components were sterilized at 121° C., 1 bar superatmospheric pressure for 20 minutes.
(§3) 2 g/L of olive oil (sterilized by filtration and, after autoclaving, added to the other components)
(§4) Since it was a two-phase medium, the complete medium was treated with sonication in order to enlarge the phase boundary.
(§5) For agar plates, if appropriate, 150 g/L of agar agar were added to the medium.
(§6) The growth test was carried out as follows: A shake flask with M472-Pityrosporum medium was inoculated with M. furfur and incubated with shaking overnight at 30° C. and 200 rpm.
A 96-well microtiter plate was filled with in each case 170 μl of M472-Pityrosporum medium and inoculated with 10 μl of M. furfur suspension of the overnight culture. This corresponded to an optical density of 0.02-0.1, measured at 620 nm. 20 μl of shampoo basic formulation 31-3 were added to this mixture. Peptide P18 was dissolved in DMSO with a concentration of 10 mM.
(§7) The microtiter plate was incubated with shaking at 30° C.
After incubation for 24 hours, the colony-forming units (CFU) were determined by resuspending 1 μl of each of the suspensions in 10 μl of medium and then plating out the obtained suspensions. After incubation for 6 days, the colonies on the plate were counted. The experiment was carried out in double determination.

[2] = system: Malassezia furfur; test: Long-term stability of P18 (12 weeks at 37° C.) tested on Malassezia furfur, CFU; assay type: cell-based; details: for colony-forming units: mean ± SD
Procedure: Since storage over longer time periods may be necessary, in the following a 1 mM P18 peptide solution (P18 sequence H-KWKLFKKIPKFLHLAKKF-NH2; SEQ ID NO: 3) was stored for 12 weeks at 37° C. and the antifungal activity of the stored solution on Malassezia furfur was compared to the activity of a freshly prepared 1 mM P18 peptide solution. This was done through a growth test, which was carried out as follows:
as §1, §2, §3, §4, §5, §6
A 96-well microtiter plate was filled with in each case 100 μl of M472-Pityrosporum medium and inoculated with M. furfur suspension of the overnight culture. The M. furfur suspension was adjusted at the start of the experiment to an optical density, measured at 600 nm, of 0.02. The concentrates of the inhibitor solutions were 1 mM in water.
The growth of the following batches was compared:
M. furfur suspension without the addition of an inhibitor.
M. furfur suspension and addition of a fresh aqueous P18 solution with a final concentration of 50 μM.
M. furfur suspension and addition of a fresh aqueous P18 solution with a final concentration of 25 μM.
M. furfur suspension and addition of a P18 solution that had been stored at 37° C. for 12 weeks, with a final concentration of 50 μM.
M. furfur suspension and addition of a P18 solution that had been stored at 37° C. for 12 weeks, with a final concentration of 25 μM.
as §7
The growth was observed over 24 hours by measuring the optical density. The colony-forming units (CFU) were then determined by plating out 1 μl and 5 μl from each of the suspensions and, after incubation for 6 days, counting the colonies. The CFU was determined in order to exclude an influence of the two-phase medium and also the growth form of M. furfur on the optical density. The experiments were carried out at least in triple determinations.

[3] = system: E. coli cells; test: Biodegradability of P18: chymotrypsin digestion, then antimicrobial activity on E. coli cells; assay type: cell-based, Escherichia coli; details: for optical density at 620 nm in two independent experiments: aqueous P18 solution 10 μM, undigested, cell gives both experiments
Procedure: Firstly, the peptide P18 was digested by adding chymotrypsin (from bovine pancreas, Sigma). For this, a 1 mM P18 solution was prepared and treated in accordance with the manufacturer's instructions. The samples were incubated for 16 hours at 37° C. The negative control used was a sample of a P18 solution without addition of chymotrypsin or a control solution which comprised only chymotrypsin, but no P18. The antimicrobial activity of P18 on E. coli cells was then investigated. The test was carried out as described in Example 3.
The growth of the following mixtures was compared by measuring the optical density:
E. coli suspension without the addition of an inhibitor.
E. coli suspension and addition of an aqueous P18 solution with a final concentration of 10 μM. The P18 solution had been stored beforehand for 16 hours at 37° C.
E. coli suspension and addition of an aqueous P18 solution with a final concentration of 10 μM. The P18 solution had been stored beforehand in accordance with the manufacturer's instructions for 16 hours at 37° C. and treated with chymotrypsin.
E. coli suspension and addition of an aqueous chymotrypsin solution which comprised, as control, the same amount of chymotrypsin as the P18 solution which was digested with chymotrypsin. This solution too had been stored beforehand for 16 hours at 37° C. This mixture was chosen in order to exclude an antimicrobial effect of the chymotrypsin.
The growth was observed over a period of 16 hours by measuring the optical density.

[4] = system: Malassezia furfur; test: Kinetics of the effect of P18 on M. furfur in the presence of a shampoo basic formulation, CFU; assay type: cell-based; details: 2.3-0.23 g/l, 5 min to 24 hours, 10% (v/v) formulation 31-3
Procedure: The effect of the peptide […]; carboxy-terminal end amidated; […] The experiments were carried out as follows: The following shampoo basic formulation was prepared: The components Texapon NSO and Tego Betain L7 were mixed and dissolved. The pH was adjusted to pH 6-7 with NaOH. The effect of P18, ZPT and Climbazole against M. furfur was analyzed as follows: Growth medium: […]-Pityrosporum medium according to DSMZ 40 g/L malt extract 20 g/L ox bile 10 g/L Tween 40 The components were sterilized at 121° C., 1 bar superatmospheric pressure for 20 minutes. 2 g/L of olive oil (sterilized by filtration and, after autoclaving, added to the other components) Since it was a two-phase medium, the complete medium was treated with sonication in order to enlarge the phase boundary. For agar plates, if appropriate, […] of agar agar were added to the medium. The growth test was carried out as follows: […]. furfur and incubated with shaking overnight at 30° C. and 200 rpm. A 96-well microtiter plate was filled with in each case 100 μl of […]. furfur suspension of the overnight culture. […] The peptide P18 was dissolved in water with a concentration of 230 g/l. […] The microtiter plate was incubated with shaking at 30° C.

With “KWKLFKKIPKFLHLAKKF-NH2 [P18, KWKLFKKIPKFLHLAKKF-NH2]” the “CFU after 24 hours of incubation” value ([1]; P18 concentration 25 μM) was 80, the “CFU after 24 hours of incubation” value ([1]; P18 concentration 50 μM) was 32 and the “CFU after 24 hours of incubation” value ([1]; P18 concentration 100 μM) was 0. For the same substance, the “CFU after 24 hours of incubation” value ([1]; P18 concentration 200 μM) was 0, the “CFU after 24 hours of incubation” value ([1]; P18 concentration 300 μM) was 0 and the “CFU after 24 hours of incubation” value ([1]; P18 concentration 400 μM) was 0. For the same substance, the “CFU after 24 hours of incubation” value ([1]; P18 concentration 500 μM) was 0, the “P18 concentrations that completely inhibit growth of M. furfur” value ([1]; in the presence of shampoo basic formulation 31-3, 24 hours) was “above 100 μM” and the “influence of storage on the activity of the P18 peptide solution” value ([2]; 1 mM solution stored for 12 weeks at 37° C.) was “has not influenced the activity”. The colony-forming units ([2]; aqueous P18 solution stored 12 weeks at 37° C., 25 μM final conc., incubation time 16-18 h) was 6 ± 7, the colony-forming units ([2]; aqueous P18 solution stored 12 weeks at 37° C., 25 μM final conc., incubation time 24 h) was 5 ± 5 and the colony-forming units ([2]; aqueous P18 solution stored 12 weeks at 37° C., 50 μM final conc., incubation time 16-18 h) was 0 ± 0. For the same substance, the colony-forming units ([2]; aqueous P18 solution stored 12 weeks at 37° C., 50 μM final conc., incubation time 24 h) was 1 ± 1, the colony-forming units ([2]; fresh aqueous P18 solution, 25 μM final conc., incubation time 16-18 h) was 5 ± 8 and the colony-forming units ([2]; fresh aqueous P18 solution, 25 μM final conc., incubation time 24 h) was 1 ± 2. The colony-forming units ([2]; fresh aqueous P18 solution, 50 μM final conc., incubation time 16-18 h) was 0 ± 0, the colony-forming units ([2]; fresh aqueous P18 solution, 50 μM final conc., incubation time 24 h) was 1 ± 1 and the “optical density at 620 nm in two independent experiments” value ([3]; incubation time 0 h) was 0-0. For the same substance, the “optical density at 620 nm in two independent experiments” value ([3]; incubation time 16 h) was 0.01-0.09, the “biodegradability (protease digestion)” value ([3]; chymotrypsin, 16 hours at 37° C.) was “digestion of P18 with a serine protease, such as, for example, chymotrypsin, is possible” and the “effect on M. furfur in the presence of shampoo basic formulation (in words)” value [4] was “superior characteristics as compared to Zincpyrithione or Climbazole”.
